Measured values published in ChEMBL document CHEMBL4602659, “β,β-Dimethylacrylshikonin Induces Apoptosis in Melanoma Cell Lines by NOXA Upregulation” (J Nat Prod, 2020).
Active and inactive are the calls of the source. No cut-off for these calls is given here.

Tests used:
WM793 [1] = assay: Induction of apoptosis in human WM793 cells assessed as up regulation of NOXA protein expression at IC50 concentration after 24 hrs by Western blot analysis; type: functional, cell-based
WM164 [2] = assay: Induction of apoptosis in human WM164 cells treated with scrambled si-RNA assessed as caspase -activity at IC50 concentration after 24 hrs by Western blot analysis; type: functional, cell-based
SBcl2 [3] = assay: Induction of apoptosis in human SBcl2 cells assessed as up regulation of NOXA at IC50 concentration after 6 to 24 hrs by RT-qPCR analysis; type: functional, cell-based
MUGMel2 [4] = assay: Induction of apoptosis in human MUGMel2 cells assessed as effect on BAX protein expression at IC50 concentration after 24 hrs by Western blot analysis; type: functional, cell-based
WM164 [5] = assay: Induction of apoptosis in human WM164 cells assessed as increase in caspase -3 activity at IC50 concentration after 24 hrs by Alexa Fluor 647 antibody based flow cytometric analysis; type: functional, cell-based
WM793 [6] = assay: Induction of apoptosis in human WM793 cells assessed as necrotic cells at IC50 concentration after 24 hrs by Annexin V/SYTOX Green based flow cytometric analysis (reference value: 0.17%); type: functional
WM793 [7] = assay: Cytotoxicity against human WM793 cells harboring BRAF V600E mutant assessed as reduction in cell viability after 24 hrs by EZ4U reagent based spectrophotometric method; type: functional; conditions: WM793, 24 h
WM793 [8] = assay: Induction of apoptosis in human WM793 cells assessed as effect on BAX mRNA expression at IC50 concentration after 6 to 24 hrs by RT-qPCR analysis; type: functional, cell-based
MUGMel2 [9] = assay: Induction of apoptosis in human MUGMel2 cells assessed as early apoptotic cells at IC50 concentration after 6 hrs by Annexin V/SYTOX Green based flow cytometric analysis (reference value: 2.89%); type: functional
SBcl2 [10] = assay: Cytotoxicity against human SBcl2 cells harboring NRAS Q61I mutant assessed as reduction in cell viability after 24 hrs by EZ4U reagent based spectrophotometric method; type: functional; conditions: SBcl2, 24 h
SBcl2 [11] = assay: Induction of apoptosis in human SBcl2 cells assessed as effect on BAD protein expression at IC50 concentration after 24 hrs by Western blot analysis; type: functional, cell-based
MUGMel1 [12] = assay: Induction of apoptosis in human MUGMel1 cells assessed as viable cells at IC50 concentration after 6 hrs by Annexin V/SYTOX Green based flow cytometric analysis (reference value: 96.01%); type: functional
WM164 [13] = assay: Induction of apoptosis in human WM164 cells assessed as up regulation of PUMA at IC50 concentration after 6 to 24 hrs by RT-qPCR analysis; type: functional, cell-based
MUGMel2 [14] = assay: Cytotoxicity against human MUGMel2 cells harboring NRAS pQ61K mutant assessed as reduction in cell viability after 72 hrs by EZ4U reagent based spectrophotometric method; type: functional; conditions: MUGMel2, 72 h
WM793 [15] = assay: Induction of apoptosis in human WM793 cells assessed as effect on BAD mRNA expression at IC50 concentration after 6 to 24 hrs by RT-qPCR analysis; type: functional, cell-based
WM164 [16] = assay: Induction of apoptosis in human WM164 cells assessed as effect on BAX mRNA expression at IC50 concentration after 6 to 24 hrs by RT-qPCR analysis; type: functional, cell-based
MUGMel2 [17] = assay: Induction of apoptosis in human MUGMel2 cells assessed as effect on BAD protein expression at IC50 concentration after 24 hrs by Western blot analysis; type: functional, cell-based
MUGMel1 [18] = assay: Induction of apoptosis in human MUGMel1 cells assessed as effect on BAD mRNA expression at IC50 concentration after 6 to 24 hrs by RT-qPCR analysis; type: functional, cell-based
MUGMel2 [19] = assay: Induction of apoptosis in human MUGMel2 cells assessed as viable cells at IC50 concentration after 6 hrs by Annexin V/SYTOX Green based flow cytometric analysis (reference value: 91.12%); type: functional
MUGMel1 [20] = assay: Induction of apoptosis in human MUGMel1 cells assessed as viable cells at IC50 concentration after 24 hrs by Annexin V/SYTOX Green based flow cytometric analysis (reference value: 95.13%); type: functional
SBcl2 [21] = assay: Induction of apoptosis in human SBcl2 cells assessed as effect on PUMA protein expression at IC50 concentration after 24 hrs by Western blot analysis; type: functional, cell-based
SBcl2 [22] = assay: Induction of apoptosis in human SBcl2 cells treated with scrambled si-RNA assessed as up regulation of NOXA protein expression at IC50 concentration after 24 hrs by Western blot analysis; type: functional, cell-based
WM164 [23] = assay: Antitumour activity against human WM164 cells xenografted in NU(NCr)-Foxn1 mouse assessed as increase in necrotic cells at 1 to 4 ug/g administered for three consecutive days with 1 day interval for four cycle by hematoxylin and eosin staining based microscopic analysis; type: functional
MRC5 = assay: Cytotoxicity against human MRC5 cells assessed as reduction in cell viability after 24 hrs by EZ4U reagent based spectrophotometric method; type: functional; conditions: MRC5, 24 h
MUGMel2 [24] = assay: Induction of apoptosis in human MUGMel2 cells assessed as necrotic cells at IC50 concentration after 24 hrs by Annexin V/SYTOX Green based flow cytometric analysis (reference value: 1.1%); type: functional
MUGMel2 [25] = assay: Induction of apoptosis in human MUGMel2 cells assessed as late apoptotic cells at IC50 concentration after 24 hrs by Annexin V/SYTOX Green based flow cytometric analysis (reference value: 9.64%); type: functional
WM164 [26] = assay: Induction of apoptosis in human WM164 cells assessed as up regulation of NOXA at IC50 concentration after 6 to 24 hrs by RT-qPCR analysis; type: functional, cell-based
SBcl2 [27] = assay: Induction of apoptosis in human SBcl2 cells assessed as early apoptotic cells at IC50 concentration after 6 hrs by Annexin V/SYTOX Green based flow cytometric analysis (reference value: 4.26%); type: functional
MUGMel1 [28] = assay: Induction of apoptosis in human MUGMel1 cells assessed as effect on PUMA protein expression at IC50 concentration after 24 hrs by Western blot analysis; type: functional, cell-based
B16-F0 = assay: Cytotoxicity against mouse B16F0 cells assessed as reduction in cell viability after 48 hrs by MTT assay; type: functional, cell-based; conditions: B16F0, 48 h
MUGMel1 [29] = assay: Induction of apoptosis in human MUGMel1 cells assessed as necrotic cells at IC50 concentration after 24 hrs by Annexin V/SYTOX Green based flow cytometric analysis (reference value: 0.42%); type: functional
WM793 [30] = assay: Induction of apoptosis in human WM793 cells assessed as increase in caspase -3 activity at IC50 concentration after 24 hrs by Alexa Fluor 647 antibody based flow cytometric analysis; type: functional, cell-based
WM164 [31] = assay: Cytotoxicity against human WM164 cells harboring BRAF V600E mutant assessed as reduction in cell viability after 48 hrs by EZ4U reagent based spectrophotometric method; type: functional; conditions: WM164, 48 h
WM793 [32] = assay: Induction of apoptosis in human WM793 cells assessed as early apoptotic cells at IC50 concentration after 24 hrs by Annexin V/SYTOX Green based flow cytometric analysis (reference value: 2.64%); type: functional
WM164 [33] = assay: Induction of apoptosis in human WM164 cells assessed as late apoptotic cells at IC50 concentration after 24 hrs by Annexin V/SYTOX Green based flow cytometric analysis (reference value: 1.81%); type: functional

SMILES: CC(C)=CC[C@@H](OC(=O)C=C(C)C)C1=CC(=O)c2c(O)ccc(O)c2C1=O [DIMETHYLACRYLSHIKONIN]
- Activity (WM793 [1]): inactive
- Activity (WM164 [2]): inactive
- Activity (SBcl2 [3]): Active
- Activity (MUGMel2 [4]): inactive
- Activity (WM164 [5]): Active
- Activity (WM793 [6]): 0.22%
- IC50 (WM793 [7]): 1200 nM
- Activity (WM793 [8]): inactive
- Activity (MUGMel2 [9]): 10.56%
- IC50 (SBcl2 [10]): 1900 nM
- Activity (SBcl2 [11]): inactive
- Activity (MUGMel1 [12]): 94.02%
- Activity (WM164 [13]): Active
- IC50 (MUGMel2 [14]): 1700 nM
- Activity (WM793 [15]): inactive
- Activity (WM164 [16]): inactive
- Activity (MUGMel2 [17]): inactive
- Activity (MUGMel1 [18]): inactive
- Activity (MUGMel2 [19]): 75.52%
- Activity (MUGMel1 [20]): 49.48%
- Activity (SBcl2 [21]): inactive
- Activity (SBcl2 [22]): Active
- Activity (WM164 [23]): 60%
- IC50 (MRC5): 9.5 µM
- Activity (MUGMel2 [24]): 0.16%
- Activity (MUGMel2 [25]): 43.89%
- Activity (WM164 [26]): Active
- Activity (SBcl2 [27]): 8.44%
- Activity (MUGMel1 [28]): inactive
- IC50 (B16-F0): 1.2 to 5.1 µM
- Activity (MUGMel1 [29]): 0.15%
- Activity (WM793 [30]): Active
- IC50 (WM164 [31]): 3000 nM
- Activity (WM793 [32]): 13.71%
- Activity (WM164 [33]): 11.6%
